How the values were obtained:
gastric acid secretion [1] = test: Inhibitory effect on gastric acid secretion, perfused stomach preparation of anesthetized rat (histamine stimulated); format: in vivo, Wistar strain rats; settings: intravenous; for ED100: Rattus norvegicus, cumulative, histamine 30 μg/kg/min, read-out: Dose for complete inhibition; for Duration: time from complete inhibition until pH of perfusate became 4
Procedure: (i) Perfused stomach preparation of anesthetized rat [according to M. N. Ghosh and H. O. Schild: Brit. J. Pharmacol. 13, 54 (1958)]
Wistar strain rats (male, 200 to 250 g) starved for 18 hours were anesthetized with urethane and then subjected to laparotomy, after which the forestomach region of the stomach of each rat was incised. The whole interior of the stomach was sufficiently washed with physiological saline, and the cut edges were sutured. A silicon tube was inserted into the stomach to a length of about 5 mm from the duodenum side and fixed. Subsequently, the stomach was perfused with physiological saline adjusted to a pH of about 10 with an aqueous sodium hydroxide solution at a constant rate (1 ml/min) through an oral sonde, and the change in pH of the perfusate which had flowed out through the silicone tube was continuously recorded. During the perfusion, histamine (30 μg/kg/min) was continuously injected, as an agent for stimulating gastric acid secretion, through the femoral vein at a rate of 0.3 ml/min. Each drug was intravenously administered when the acid secretion became almost constant (pH 3.3±0.2), and cumulatively administered when the inhibition of acid secretion at each dose reached a plateau.
The number of experiments was three for each dose.

gastric acid secretion [2] = test: Inhibitory effect on gastric acid secretion, pylorus ligation method (histamine); format: in vivo, Wistar strain rats; settings: Rattus norvegicus, oral, histamine 25 mg/kg s.c., read-out: Inhibition percentage (gastric acid secretion)
Procedure: Five to six Wistar strain rats (male, 190 to 230 g) per group were starved for 35 hours, after which each drug was orally administered, and after 2 hours, the pylorus of each rat was ligated under ether anesthesia. […] After 3 hours, each rat was killed, after which the cardiac portion was ligated, and the stomach was removed. After 1 ml of distilled water was injected into the stomach, the gastric juice was collected by centrifugation and its volume was measured. The acidity of the gastric juice was measured by titrating 1 ml of the gastric juice with a 0.1N aqueous sodium hydroxide solution, taking pH 7.0 as the end-point. Physiological saline was administered to a control group.
The inhibition percentage of gastric acid secretion was determined from the following equation: [formula]

Indomethacin ulcer = test: Anti-ulcer activity: Indomethacin ulcer; format: in vivo, Wistar strain rats; settings: for Potency ratio: Cimetidine = 1; for ED50: 5 h, Indomethacin ulcer, read-out: ID50 (the source's name)
Procedure: Six Wistar strain rats (male, 200 to 250 g) per group were starved for 24 hours, after which each drug was orally administered, and after 30 minutes, Indomethacin was injected subcutaneously at a dose of 30 mg/kg. After 5 hours, each rat was killed, and the stomach was removed and fixed with 3% formalin, after which the lengths of ulcers formed in the stomach was measured under the binocular stereoscopic microscope (10×), and the sum total of the lengths was taken as the ulcer index. To a control group was administered 0.5% Tween 80 physiological saline. The inhibition percentage was determined from the following equation: [formula]

[3] = tested on: Stress ulcer induced by water-immersion; test: Anti-ulcer activity: Stress ulcer induced by water-immersion; format: in vivo, Wistar rats; settings: for Inhibition percentage / ED50: oral; for Potency ratio: Cimetidine = 1; for ED50: Rattus norvegicus, 15 h, water-immersion stress ulcer, read-out: ID50 (the source's name)
Procedure: (iii) Stress ulcer induced by water-immersion
An experiment was carried out according to the method of Takagi et al. [K. Takagi et al., Jap.
Six Wistar rats (male, 230 to 280 g) per group were starved for 24 hours, after which each drug was orally administered. After 30 minutes, the rats were placed in stress cage, immersed in water at 23° C. to the depth of xiphoid, and allowed to stand therein for 15 hours. Thereafter, the stomach of each rat was removed and then fixed with 3% formalin, after which the areas of the ulcers formed were measured under the binocular stereoscopic microscope (10×), and the sum total of the areas was taken as the ulcer index. To a control group was administered 0.5% Tween 80 physiological saline.
The inhibition percentage was determined from the following equation: [formula]

Reserpine ulcer = test: Anti-ulcer activity: Reserpine ulcer; format: in vivo, Wistar strain rats; settings: oral; for ED50: Rattus norvegicus, 18 h, reserpine ulcer, read-out: ID50 (the source's name)
Procedure: An experiment was carried out according to the method of Adami et al. [E. Adami et al., Arch. int.
Ten Wistar strain rats (male, 180 to 200 g) per group were starved for 30 hours, after which each drug was orally administered, and after 1 hour, reserpine was injected subcutaneously at a dose of 10 mg/kg. After 18 hours, the stomach was removed and fixed with 3% formalin, and thereafter the lengths of the ulcers formed in the stomach were measured with callipers. The measured values were converted to the scores described below, and the sum total of the scores was taken as the ulcer index.
That is to say, 1 to 5 pin point ulcers are scored as 1, 6 or more pin point ulcers are scored as 2, ulcers of 1 mm or less in length are scored as 1, ulcers of 1 to 2 mm in length are scored as 2, ulcers of 2 to 4 mm in length are scored as 4, and ulcers of 4 mm or more in length are scored as 8.
To a control group was administered 0.5% Tween 80 physiological saline. The inhibition percentage was determined from the following equation: [formula]

[4] = Rattus norvegicus, oral, read-out: Inhibition percentage

SMILES | ED100 (gastric acid secretion [1]) [mg/kg] | Duration (gastric acid secretion [1]) [min] | inhibition in vivo at 3 mg/kg (gastric acid secretion [2]) [%] | inhibition in vivo at 1 mg/kg (gastric acid secretion [2]) [%] | also measured
CN(C)Cc1ccc(CSCCNC(=C[N+](=O)[O-])NCC(O)c2ccc(Cl)cc2)o1 (stereo not shown) [compound 5, N-[2-(4-chlorophenyl)-2-hydroxyethyl]-N'-{2-[[5-(dimethylamino)methyl-2-furyl]methylthio]ethyl}-2-nitro-1,1-ethenediamine] | 0.1 | 192 | 80 | – | –
CN(C)Cc1ccc(CSCCNC(=C[N+](=O)[O-])NCC(O)c2cccs2)o1 (stereo not shown) [compound 6] | 0.1 | 132 | 67 | – | inhibition in vivo at 10 mg/kg (gastric acid secretion [2]): 93%
Cc1ccsc1C(O)CNC(=C[N+](=O)[O-])NCCSCc1ccc(CN(C)C)o1 (stereo not shown) [compound 7, N-{2-[[5-(dimethylamino)methyl-2-furyl]methylthio]ethyl}-N'-[2-hydroxy-2-(3-methyl-2-thienyl)ethyl]-2-nitro-1,1-ethenediamine] | 0.1 | 227 | 88 | – | –
O=[N+]([O-])C=C(NCCCOc1cccc(CN2CCCCC2)c1)NCC(O)c1ccccc1 (stereo not drawn) [compound 11, N-(β-hydroxyphenethyl)-2-nitro-N'-[3-(3-piperidinomethylphenoxy)propyl]-1,1-ethenediamine] | 0.05 | 123 | 79 | – | inhibition in vivo at 10 mg/kg (gastric acid secretion [2]): 81%
O=[N+]([O-])C=C(NCCCOc1cccc(CN2CCCCC2)c1)NCC(O)c1ccc(O)cc1 (stereo not shown) [compound 12, N-[2-hydroxy-2-(4-hydroxyphenyl)ethyl]-2-nitro-N'-[3-(3-piperidinomethylphenoxy)propyl]-1,1-ethenediamine] | 0.15 | > 240 | 87 | – | –
O=[N+]([O-])C=C(NCCCOc1cccc(CN2CCCCC2)c1)NCC(O)c1cccc(O)c1 (stereo not shown) [compound 13, N-[2-hydroxy-2-(3-hydroxyphenyl)ethyl]-2-nitro-N'-[3-(3-piperidinomethylphenoxy)propyl]-1,1-ethenediamine] | 0.1 | > 240 | – | 51 | –
COc1ccc(C(O)CNC(=C[N+](=O)[O-])NCCCOc2cccc(CN3CCCCC3)c2)cc1 (stereo not shown) [compound 14, N-[2-hydroxy-2-(4-methoxyphenyl)ethyl]-2-nitro-N'-[3-(3-piperidinomethylphenoxy)propyl]-1,1-ethenediamine] | 0.15 | 158 | – | 61 | –
O=[N+]([O-])C=C(NCCCOc1cccc(CN2CCCCC2)c1)NCC(O)c1ccc(Cl)cc1 (stereo not shown) [compound 16, N-[2-(4-chlorophenyl)-2-hydroxyethyl]-2-nitro-N'-[3-(3-piperidinomethylphenoxy)propyl]-1,1-ethenediamine] | 0.1 | 304 | 89 | – | –
Cc1ccsc1C(O)CNC(=C[N+](=O)[O-])NCCCOc1cccc(CN2CCCCC2)c1 (stereo not shown) [compound 18, N-[2-hydroxy-2-(3-methyl-2-thienyl)ethyl]-2-nitro-N'-[3-(3-piperidinomethylphenoxy)propyl]-1,1-ethenediamine] | 0.3 | 247 | 87 | – | –
Cc1cccc(C(O)CNC(=C[N+](=O)[O-])NCCSCc2cc(C)c(CN(C)C)s2)c1 (stereo not shown) [compound 29, N-{2-[[5-(dimethylamino)methyl-4-methyl-2-thienyl]methylthio]ethyl}-N'-[2-hydroxy-2-(3-methylphenyl)ethyl]-2-nitro-1,1-ethenediamine] | 0.3 | > 177 | – | 56 | Potency ratio (Indomethacin ulcer): 31.3; ED50 (Indomethacin ulcer; Rattus norvegicus, oral): 0.88 mg/kg; inhibition in vivo at 0.3 mg/kg (Indomethacin ulcer; Rattus norvegicus, 0.3 mg/kg, oral, read-out: Inhibition percentage): 8%; inhibition in vivo at 1 mg/kg (Indomethacin ulcer; [4]): 57%; Inhibition percentage ([3]; 1 mg/kg): 37%; Inhibition percentage ([3]; 3 mg/kg): 78%; Potency ratio [3]: 11.1; ED50 [3]: 1.4 mg/kg; Inhibition percentage (Reserpine ulcer; 1 mg/kg): 21%; Inhibition percentage (Reserpine ulcer; 3 mg/kg): 41%; ED50 (Reserpine ulcer): 4.7 mg/kg
Cc1cc(CSCCNC(=C[N+](=O)[O-])NCC(O)c2cccc(Br)c2)sc1CN(C)C (stereo not shown) [compound 32, N-[2-(3-bromophenyl)-2-hydroxyethyl]-N'-{2-[[5-(dimethylamino)methyl-4-methyl-2-thienyl]methylthio]ethyl}-2-nitro-1,1-ethenediamine] | 0.3 | > 220 | – | – | Potency ratio (Indomethacin ulcer): 15.2; ED50 (Indomethacin ulcer; Rattus norvegicus, oral): 1.81 mg/kg; inhibition in vivo at 1 mg/kg (Indomethacin ulcer; [4]): 24%; inhibition in vivo at 3 mg/kg (Indomethacin ulcer; Rattus norvegicus, 3 mg/kg, oral, read-out: Inhibition percentage): 72%; inhibition in vivo at 1.5 mg/kg (gastric acid secretion [2]; 1.5 mg/kg): 60%; Inhibition percentage (Reserpine ulcer; 1 mg/kg): 38%; Inhibition percentage (Reserpine ulcer; 3 mg/kg): 55%; ED50 (Reserpine ulcer): 2.15 mg/kg
Cc1cc(CSCCNC(=C[N+](=O)[O-])NCC(O)c2cccc(C(F)(F)F)c2)sc1CN(C)C (stereo not shown) [compound 33, N-{2-[[5-(dimethylamino)methyl-4-methyl-2-thienyl]methylthio]ethyl}-N'-[2-hydroxy-2-(3-trifluoromethylphenyl)ethyl]-2-nitro-1,1-ethenediamine] | 0.3 | > 240 | – | 55 | Inhibition percentage ([3]; 1 mg/kg): 32%; Inhibition percentage ([3]; 3 mg/kg): 75%; Potency ratio [3]: 9.8; ED50 [3]: 1.58 mg/kg; Inhibition percentage (Reserpine ulcer; 1 mg/kg): 42%; Inhibition percentage (Reserpine ulcer; 3 mg/kg): 68%; ED50 (Reserpine ulcer): 1.4 mg/kg
Cc1cc(CSCCNC(=C[N+](=O)[O-])NCC(O)c2ccc(F)cc2)sc1CN(C)C (stereo not shown) [compound 41, N-{2-[[5-(dimethylamino)methyl-4-methyl-2-thienyl]methylthio]ethyl}-N'-[2-(4-fluorophenyl)-2-hydroxyethyl]-2-nitro-1,1-ethenediamine] | – | – | – | 65 | –
O=[N+]([O-])C=C(NCCCOc1cccc(CN2CCCCC2)c1)NCC(O)c1cccc(F)c1 (stereo not shown) [compound 43, N-[2-(3-fluorophenyl)-2-hydroxyethyl]-2-nitro-N'-[3-(3-piperidinomethylphenoxy)propyl]-1,1-ethenediamine] | – | – | – | 51 | –
Cc1ccccc1C(O)CNC(=C[N+](=O)[O-])NCCCOc1cccc(CN2CCCCC2)c1 (stereo not shown) [compound 44, N-[2-hydroxy-2-(2-methylphenyl)ethyl]-2-nitro-N'-[3-(3-piperidinomethylphenoxy)propyl]-1,1-ethenediamine] | – | – | – | 75 | –
Nc1ccc(C(O)CNC(=C[N+](=O)[O-])NCCCOc2cccc(CN3CCCCC3)c2)cc1 (stereo not shown) [compound 45, N-[2-(4-aminophenyl)-2-hydroxyethyl]-2-nitro-N'-[3-(3-piperidinomethylphenoxy)propyl]-1,1-ethenediamine] | – | – | – | 65 | –

— patent US4923882A, “Novel amine derivatives, salts thereof and an anti-ulcer agent containing the same” (Toyama Chemical Co., Ltd., priority 1982, dated 1990)
